Data set [1] deals with animal model of Parkinson's disease. The settings on record: 50 mg/kg (anesthetic dose), cited from earlier work.
In the next data set the test system is MPTP-treated mice. Description: MPTP mouse model of Parkinson's disease, DAT immunohistochemistry in the striatum. The class given is in vivo. The text has this: A Parkinson's disease model animal (Jackson-Lewis V. et al. Protocol for the MPTP mouse model of Parkinson's disease. Nat Protoc. 2007; 2 (1): 141-51.), which is a representative Parkinson's disease animal model and has been used by a number of research groups so far, was used to study the therapeutic effect of R-ketamine and S-ketamine on the loss of the dopamine nervous system in the brain of the model animal.
The creation of the Parkinson's disease model animal and the administration of the drug were specifically carried out as described below (FIG. 1). As the mouse, a male C57BL/6N mouse (12 weeks of age, SLC Japan Co., Ltd., Hamamatsu, Japan) was purchased. Mice had free access to water and food. For the experiment, those above 14 weeks of age were used. On the first day of the experiment, physiological saline (5 mL/kg body weight) or MPTP (10 mg/kg body weight) was intraperitoneally administered three times at two hours intervals. Three hours after the final administration, R-ketamine (10 mg/kg body weight) or S-ketamine (10 mg/kg body weight), or a vehicle (physiological saline 0.5 mL/kg) was intranasally administered. Similarly, from the second day to the seventh day of the experiment, R-ketamine (10 mg/kg body weight) or S-ketamine (10 mg/kg body weight), or the vehicle (physiological saline 0.5 mL/kg) was intranasally administered. (A) is a group administered with physiological saline+physiological saline, (B) is a group administered with MPTP+physiological saline, (C) is a group administered with MPTP+R-ketamine, and (D) is a group administered with MPTP+S-ketamine. On the eighth day of the experiment, mice were perfused and fixed, and immunohistochemistry of dopamine transporter (DAT) was carried out. The immunohistochemistry of DAT was photographed with a microscope equipped with a CCD camera (Olympus IX70, Tokyo, Japan), and the shading was analyzed using SCION IMAGE software. Representative immunohistochemical photographs were taken with a Keyence microscope (BZ-9000, Osaka, Japan).
Statistical analysis was carried out by one-way analysis of variance (one-way ANOVA) followed by Tukey's test (Tukey HSD test). Data are expressed as mean±standard error (n=7 to 8 mouse/group). * p<0.05, ** p<0.01, and *** p<0.001 show significant differences compared to the (B) group of mice treated with MPTP+physiological saline.
The test was carried out in the same manner as in the test in FIG. 1 except that R-ketamine (10 mg/kg body weight) or the vehicle (physiological saline 0.5 mL/kg) was intranasally administered once (FIG. 4). There were a group administered with physiological saline+physiological saline, a group administered with MPTP+physiological saline, and a group administered with MPTP+R-ketamine.
The test was carried out in the same manner as in the test in FIG. 1 except that R-norketamine (10 mg/kg body weight) or S-norketamine (10 mg/kg body weight) was administered (FIG. 6). There were a group administered with physiological saline+physiological saline, a group administered with MPTP+physiological saline, a group administered with MPTP+R-norketamine, and a group administered with MPTP+S-norketamine.
The test was carried out in the same manner as in the test in FIG. 1 except that ANA-12 (0.5 mg/kg), an antagonist of the TrkB receptor for brain-derived neurotrophic factor (BDNF: Brain-derived Neurotrophic Factor), was administered before the administration of R-ketamine. (FIG. 8). It should be noted that in FIG. 8, ANA-12 is described as ANA. There was a group administered with physiological saline+physiological saline, a group administered with MPTP+physiological saline, a group administered with MPTP+R-ketamine, a group administered with MPTP+R-ketamine+ANA-12, and a group administered with MPTP+ANA-12.

In a further data set the test system is β-amyloid-treated mice. Description: Alzheimer's disease model (intracerebroventricular β-amyloid), novel object recognition test (NORT). The class given is in vivo, mouse. The settings on record: 10 mg/kg intraperitoneal once a day, day 2 to day 10; test session day 15; male ICR mice. The text has this: Using an animal model of Alzheimer's disease (intracerebroventricular administration of β-amyloid), which has been used by a number of research groups so far, the therapeutic effect of R-ketamine and S-ketamine on the cognitive dysfunction was studied.
The creation of the Alzheimer's disease model animal and the administration of the drug were specifically carried out as described below (FIG. 10). As the mouse, a male ICR mouse (five weeks of age, SLC Japan Co., Ltd., Hamamatsu, Japan) was purchased. Mice had free access to water and food. First, β-amyloid (BACHEM, Cat. #: H-1192.0005) was incubated at 37° C. for four days to let aggregate. On the first day of the experiment, mice were anesthetized with isoflurane and pentobarbital, and placed on a mouse brain fixation apparatus. Distilled water (6 μL) or β-amyloid (6 μg) was administered intracerebroventricularly. […] On the 14th day of the experiment, two objects having different shapes and colors were placed on the NORT apparatus at a distance of 35.5 cm, and the time for searching for each object was measured. […] The time to search for two objects was measured, and the ratio of the time to search for a new object to the time to search for the two objects in the test session on the second day was calculated. […]

The subject of a further data set is α-synuclein-treated mice. As to the kind of experiment: Lewy body dementia model (intracerebroventricular α-synuclein), novel object recognition test (NORT). The class given is in vivo, mouse. As to conditions: 10 mg/kg intraperitoneal once a day, day 2 to day 10; test session day 15; male ICR mice. The text has this: The therapeutic effects of R-ketamine and S-ketamine on cognitive dysfunction were studied using animal models of Lewy body dementia and diseases caused by α-synuclein aggregation (intracerebroventricular administration of α-synuclein), which have been used by a number of research groups so far.
The creation of the Lewy body dementia model animal and the administration of the drugs were specifically carried out as described below (FIG. 12). As the mouse, a male ICR mouse (five weeks of age, SLC Japan Co., Ltd., Hamamatsu, Japan) was purchased. Mice had free access to water and food. First, α-synuclein (StressMarq @ Bioscience, Cat #: SPR-322) was incubated at 37° C. for four days to let aggregate. On the first day of the experiment, mice were anesthetized with isoflurane and pentobarbital, and placed on a mouse brain fixation apparatus. Physiological saline (6 μL) or α-synuclein (6 μg) was administered intracerebroventricularly. […]
Statistical analysis was carried out by one-way analysis of variance (one-way ANOVA) followed by the Fisher's least significant difference test (Fisher's Least Significant Difference test). Data are expressed as mean±standard error (n=4 mouse/group). * p<0.05 and ** p<0.01 show significant differences compared to the group of mice treated with α-synuclein+physiological saline.

The conditions of data set [2]: animal experiments, non-patent literature 5; cited from earlier work.
In another data set the test system is NMDA receptor. As to conditions: non-patent literature 4; cited from earlier work.
The mark [3] stands for this setting: 10 mg/kg intranasal, day 1 (3 h after last MPTP) to day 7, DAT on day 8, male C57BL/6N mice.

The structures appear in SMILES notation.

For `CNC1(c2ccccc2Cl)CCCCC1=O` (racemic) [RS-ketamine], the “neuroprotective effect in an animal model of Parkinson's disease” value in data set [1] (non-patent literature 2) is recorded as “has a neuroprotective effect”. Further, the “side effects such as an acute activity increase effect” value in data set [1] is reported as “notably observed”.
Consider `O=C(Nc1ccccc1C(=O)NC1CCCCNC1=O)c1cc2ccccc2s1` (centres unmarked) [ANA-12], for which the “MPTP-induced decrease in DAT density” value in the data set on MPTP-treated mice (ANA-12 alone, 0.5 mg/kg) was “did not affect MPTP-induced decrease in DAT density”.
For `CN[C@@]1(c2ccccc2Cl)CCCCC1=O` [R-ketamine], the “MPTP-induced decrease in DAT density in the striatum” value with MPTP-treated mice (setting [3]) is “significantly improved the decrease in DAT density”; with MPTP-treated mice (10 mg/kg intranasal, single administration), “suppressed MPTP-induced decrease in DAT density”; in the data set on MPTP-treated mice (R-ketamine 10 mg/kg intranasal with ANA-12 (0.5 mg/kg) administered before) it was “No effect of R-ketamine was observed”. Also, the “decrease in cognitive function caused by β-amyloid administration (NORT)” value with β-amyloid-treated mice is “significantly improved the decrease in cognitive function”. In the data set with α-synuclein-treated mice, the “decrease in cognitive function caused by α-synuclein administration (NORT)” value was “significantly improved the decrease in cognitive function”. Also, in data set [2], the “side effects (psychotic disorder triggering effect, drug dependency, and the like) compared with S-ketamine” value is reported as “fewer side effects”.
Regarding `N[C@@]1(c2ccccc2Cl)CCCCC1=O` [R-norketamine], the “MPTP-induced decrease in DAT density in the striatum” value in the data set with MPTP-treated mice (setting [3]) is given as “did not suppress MPTP-induced decrease in DAT density”.
For the compound `CN[C@]1(c2ccccc2Cl)CCCCC1=O` [S-ketamine], the “MPTP-induced decrease in DAT density in the striatum” value in the data set with MPTP-treated mice (setting [3]) was “did not improve the decrease in DAT density”. In the data set on β-amyloid-treated mice, the “decrease in cognitive function caused by β-amyloid administration (NORT)” value was “did not improve the decrease in cognitive function”. In the data set on NMDA receptor, the “affinity for the NMDA receptor relative to R-ketamine” value is recorded as “about four times higher than R-ketamine”.
For the compound `N[C@]1(c2ccccc2Cl)CCCCC1=O` [S-norketamine], in the data set on MPTP-treated mice (setting [3]), the “MPTP-induced decrease in DAT density in the striatum” value is listed as “did not suppress MPTP-induced decrease in DAT density”.

The record behind these values is patent US20240390296A1, “R-KETAMINE AND DERIVATIVE THEREOF AS PROPHYLACTIC OR THERAPEUTIC AGENT FOR NEURODE[…] OR R[…]” (National University Corporation Chiba University, priority 2017, published 2024).
